Results: patent US20020049223A1, “Quinoline and naphthyridine carboxylic acid antibacterials” (priority 1999, published 2002)
Structures can show the parent of a compound that is named as a salt.

What was measured:
Experiment in all cases: Assay B: in vitro antibacterial activity, broth microdilution MIC (NCCLS)
Type in all cases: cell-based
Escherichia coli JUHL = settings: Table 2, Assay B, cation-adjusted Mueller Hinton broth, 35° C., 16 to 20 hr; code D = Escherichia coli JUHL; unit assumed
Outline: (§1)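 Serial two-fold dilutions in cation-adjusted Mueller Hinton broth; inoculum ~5×10^5 CFU/mL from overnight cultures; 35° C, ambient air, 16 to 20 hr. MIC read visually as lowest concentration completely inhibiting growth. S. pneumoniae: 3% lysed horse blood, 20 to 24 hr; H. influenzae: 5 g/L yeast extract, 0.3 mmol/L hematin, 15 mg/L NAD, 20 to 24 hr.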

[1] = tested on: Enterococcus faecalis PIU 1967; settings: Table 2, Assay B, cation-adjusted Mueller Hinton broth, 35° C., 16 to 20 hr; code B = Enterococcus faecalis PIU 1967; unit assumed
Outline: as §1

[2] = tested on: Staphylococcus aureus ATCC 6538P; settings: Table 2, Assay B, cation-adjusted Mueller Hinton broth, 35° C., 16 to 20 hr; code A = Staphylococcus aureus ATCC 6538P; unit assumed
Outline: as §1

[3] = tested on: Streptococcus pneumoniae ATCC 6303; settings: Table 2, Assay B, Mueller Hinton broth with 3% lysed horse blood, 20 to 24 hr; code F = Streptococcus pneumoniae ATCC 6303; unit assumed
Outline: as §1

[4] = tested on: Haemophilus influenzae DILL AMP R; settings: Table 2, Assay B, Mueller Hinton broth with yeast extract, hematin and NAD, 20 to 24 hr; code E = Haemophilus influenzae DILL AMP R; unit assumed
Outline: as §1

| Antibacterial Activity (MIC's), D (Escherichia coli JUHL) | Antibacterial Activity (MIC's), B [1] | Antibacterial Activity (MIC's), A [2] | Antibacterial Activity (MIC's), F [3] | Antibacterial Activity (MIC's), E [4] | SMILES |
| --- | --- | --- | --- | --- | --- |
| 0.03 mg/L | 0.125 mg/L | 0.015 mg/L | 0.03 mg/L | ≤ 0.004 mg/L | Nc1cc(-c2cc3c(s2)C(N)CCC3)c(F)c2c1c(=O)c(C(=O)O)cn2C1CC1.O=C(O)C(F)(F)F (stereo not shown) [Example 349, 5-amino-7-(7-amino-4,5,6,7-tetrahydro-1-benzothien-2-yl)-1-cyclopropyl-8-fluoro-4-oxo-1,4-dihydroquinoline-3-carboxylic acid trifluoroacetic acid salt] |
| 0.03 mg/L | 0.015 mg/L | ≤ 0.004 mg/L | 0.03 mg/L | ≤ 0.004 mg/L | O=C(O)c1cn(C2CC2)c2c(F)c(-c3cc4c(s3)CCCC4O)c(F)cc2c1=O (stereo not shown) [Example 294, 1-cyclopropyl-6,8-difluoro-7-(4-hydroxy-4,5,6,7-tetrahydro-1-benzothien-2-yl)-4-oxo-1,4-dihydroguinoline-3-carboxylic acid] |
| 0.125 mg/L | 0.03 mg/L | 0.015 mg/L | 0.03 mg/L | 0.015 mg/L | COc1c(-c2cc3c(s2)CCCC3N)c(F)cc2c(=O)c(C(=O)O)cn(C3CC3)c12.Cl (stereo not shown) [Example 224, 7-(4-amino-4,5,6,7-tetrahydro-1-benzothien-2-yl)-1-cyclopropyl-6-fluoro-8-methoxy-4-oxo-1,4-dihydro-3-quinolinecarboxylic acid hydrochloride] |
| 0.03 mg/L | 0.008 mg/L | ≤ 0.004 mg/L | 0.03 mg/L | ≤ 0.004 mg/L | O=C(O)c1cn(C2CC2)c2c(F)c(-c3cc4c(s3)C(O)CCC4)c(F)cc2c1=O (stereo not shown) [Example 295, 1-cyclopropyl-6,8-difluoro-7-(7-hydroxy-4,5,6,7-tetrahydro-1-benzothien-2-yl)-4-oxo-1,4-dihydroquinoline-3-carboxylic acid] |
| 0.25 mg/L | 0.25 mg/L | 0.06 mg/L | 0.125 mg/L | 0.125 mg/L | CNC1CCCc2cc(-c3ccc4c(=O)c(C(=O)O)cn(C5CC5)c4c3OC)sc21.Cl (stereo not shown) [Example 216, 1-cyclopropyl-8-methoxy-7-(7-(methylamino)-4,5,6,7-tetrahydro-1-benzothien-2-yl)-4-oxo-1,4-dihydro-3-quinolinecarboxylic acid hydrochloride] |
| 0.25 mg/L | 0.25 mg/L | 0.004 mg/L | 0.06 mg/L | 0.03 mg/L | CNC1CCCc2cc(-c3c(F)cc4c(=O)c(C(=O)O)cn(C5CC5)c4c3OC)sc21.Cl (stereo not shown) [Example 246, 1-cyclopropyl-6-fluoro-8-methoxy-7-(7-(methylamino)-4,5,6,7-tetrhydro-1-benzothien-2-yl)-4-oxo-1,4-dihydro-3-quinolinecarboxiylic acid hydrochloride] |
| 0.125 mg/L | 0.5 mg/L | 0.015 mg/L | 0.125 mg/L | 0.03 mg/L | COc1c(-c2cc3c(s2)C(N)C(F)CC3)ccc2c(=O)c(C(=O)O)cn(C3CC3)c12.Cl (stereo not shown) [Example 237, 7-(7-amino-6-fluoro-4,5,6,7-tetrahydro-1-benzothien-2-yl)-1-cyclopropyl-8-methoxy-4-oxo-1,4-dihydro-3-quinolinecarboxylic acid hydrochloride] |
| 0.125 mg/L | 0.5 mg/L | 0.125 mg/L | 0.25 mg/L | 0.015 mg/L | COc1c(-c2cc3c(s2)C(O)CNC3)ccc2c(=O)c(C(=O)O)cn(C3CC3)c12 (stereo not shown) [Example 202, 1-cyclopropyl-7-(7-hydroxy-4,5,6,7-tetrahydrothieno[3,2-c]pyridin-2-yl)-8-methoxy-4-oxo-1,4-dihydro-3-quinolinecarboxylic acid] |
| 0.03 mg/L | 0.125 mg/L | 0.03 mg/L | 0.06 mg/L | 0.015 mg/L | Cl.NC1CCCc2sc(-c3nc4c(cc3F)c(=O)c(C(=O)O)cn4C3CC3)cc21 (stereo not shown) [Example 156, 7-(4-amino-4,5,6,7-tetrahydro-1-benzothien-2-yl)-1-cyclopropyl-6-fluoro-4-oxo-1,4-dihydro[1,8]naphthyridine-3-carboxylic acid hydrochloride] |
| 1 mg/L | 0.5 mg/L | 0.125 mg/L | 0.5 mg/L | 0.25 mg/L | COc1c(-c2cc3c(s2)CCCC3NCc2ccccc2)ccc2c(=O)c(C(=O)O)cn(C3CC3)c12.Cl (stereo not shown) [Example 97, 7-(4-(benzylamino)-4,5,6,7-tetrahydro-1-benzothien-2-yl)-1-cyclopropyl-8-methoxn-4-oxo-1,4-dihydro-3-quinolinecarboxylic acid hydrochloride] |
| 0.06 mg/L | 0.03 mg/L | 0.03 mg/L | 0.015 mg/L | 0.015 mg/L | COc1c(-c2cc3c(s2)CC(N)CC3)ccc2c(=O)c(C(=O)O)cn(C3CC3)c12.O=C(O)C(F)(F)F (stereo not shown) [Example 71, 7-(6-amino-4,5,6,7-tetrahydro-1-benzothien-2-yl)-1-cyclopropyl-8-methoxy-4-oxo-1,4-dihydro-3-quinolinecarboxylic acid, trifluoroactic acid salt] |
| 1 mg/L | 0.125 mg/L | 0.03 mg/L | 0.5 mg/L | 0.5 mg/L | COc1c(-c2cc3c(s2)CCC(F)(F)C3N)ccc2c(=O)c(C(=O)O)cn(C3CC3)c12 (stereo not shown) [Example 206, 7-(4-amino-5,5-difluoro-4,5,6,7-tetrahydro-1-benzothien-2-yl)-1-cyclopropyl-8-methoxy-4-oxo-1,4-dihydro-3-quinolinecarboxylic acid] |
| 0.06 mg/L | 0.03 mg/L | ≤ 0.004 mg/L | ≤ 0.004 mg/L | 0.03 mg/L | Cc1c(F)c(-c2cc3c(s2)C(N)CCC3)nc2c1c(=O)c(C(=O)O)cn2C1CC1.Cl (stereo not shown) [Example 371, 7-(7-amino-4,5,6,7-tetrahydro-1-benzothien-2-yl)-1-cyclopropyl-6-fluoro-5-methyl-4-oxo-1,4-dihydro-1,8-naphthyridine-3-carboxylic acid hydrochloride] |

| SMILES | Antibacterial Activity (MIC's), D (Escherichia coli JUHL) | Antibacterial Activity (MIC's), B [1] | Antibacterial Activity (MIC's), A [2] | Antibacterial Activity (MIC's), F [3] | Antibacterial Activity (MIC's), E [4] |
| --- | --- | --- | --- | --- | --- |
| CNC1CCCc2sc(-c3ccc4c(=O)c(C(=O)O)cn(C5CC5)c4c3OC(F)F)cc21 (stereo not shown) [Example 107, 1-cyclopropyl-8-(difluoromethoxy)-7-(4-(methylamino)-4,5,6,7-tetrahydro-1-benzothien-2-yl)-4-oxo-1,4-dihydro-3-quinolinecarboxylic acid hydrochloride] | 0.25 mg/L | 0.5 mg/L | 0.06 mg/L | 0.06 mg/L | 0.06 mg/L |
